One compound from US10570152B2, “Antibacterial therapeutics and prophylactics” (VYOME BIOSCIENCES PVT. LTD., priority 2015, dated 2020) can be followed below.

Molecules are shown by their SMILES. Converted amounts (≈) assume the structure as drawn. “And” between values parts separate entries of the source, which are not always exact repeats. Equal entries are not always repeated.

Series [1] deals with S. aureus and S. epidermidis. Put plainly: Emergence of resistance assay (serial passaging). The series is classed as cell-based, S. aureus MTCC 6908 & S. epidermidis S5-2. Conditions: upto 28th generation. The protocol:
The in vitro emergence of resistance assay was performed for the compounds as per methods reported in literatures. The resistance assay for the test compounds was done in the same manner as documented in the MIC assay using micro broth dilution method as per CLSI guidelines. For the second cycle, bacterial culture was collected from the well showing growth, containing the next lowest concentration to the MIC of test compound, and used as inoculum for the next cycle containing the same or higher range of concentrations depending on the MIC in each cycle. The same procedure was repeated in subsequent cycles for 20-30 days. […] The serial passaging was repeated for 20-30 consecutive cycles. The assay was done in duplicates in each cycle.
An increase in MIC≥8 fold compared to the MIC of the test compound in cycle 1 was considered as a significant development of resistance.

The next series deals with K. pneumonia ATCC 13883. Put plainly: MIC by micro broth dilution. The format is cell-based. Conditions: Klebsiella pneumoniae, ATCC13883; K. pneumonia ATCC 13883; read-out: Minimum inhibitory concentration (MIC). A digest of the protocol: (§1)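 Using CLSI guidance, compound is double-diluted in BHI broth and challenged with bacteria from a 0.5 McFarland suspension (about 1.5×10^8 cells/ml) diluted 100 times. After 24 h at 37° C., Alamar blue dye gives the MIC.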

A further series relates to S. aureus MTCC 6908. Put plainly: MIC by micro broth dilution. The series is classed as cell-based. Conditions: Staphylococcus aureus, MTCC6908, read-out: Minimum inhibitory concentration (MIC). Summed up: as §1
In general terms: Dilution methods test growth across graded concentrations, often in twofold steps.

The test system of another series is E. coli BAA 196. Put plainly: MIC by micro broth dilution. The format is cell-based. Conditions: Escherichia coli, BAA196, read-out: Minimum inhibitory concentration (MIC). A digest of the protocol:
as §1

For series [2], the system named is S. epidermidis ATCC 35984. Put plainly: MIC by micro broth dilution. The note with it: Staphylococcus epidermidis, ATCC35984, read-out: Minimum inhibitory concentration (MIC). The series is classed as cell-based. A digest of the protocol:
as §1

The subject of another series is P. aeruginosa ATCC 27853. Put plainly: MIC by micro broth dilution. The series is classed as cell-based. Conditions: Pseudomonas aeruginosa, ATCC27853, read-out: Minimum inhibitory concentration (MIC). A digest of the protocol: as §1
In a further series the test system is E. faecium NCIM 5421. Put plainly: MIC by micro broth dilution. The format is cell-based. The note with it: Enterococcus faecium, NCIM5421, read-out: Minimum inhibitory concentration (MIC). Summed up: as §1
For another series, the system named is S. aureus ATCC 43300. Put plainly: MIC by micro broth dilution. The format is cell-based. Conditions: Staphylococcus aureus, ATCC43300; S. aureus ATCC 43300; read-out: Minimum inhibitory concentration (MIC). A digest of the protocol: as §1
The next series concerns E. aerogenes M2-1. Put plainly: MIC by micro broth dilution. The format is cell-based. The note with it: Klebsiella aerogenes, M21, read-out: Minimum inhibitory concentration (MIC). A digest of the protocol: as §1
The next series has as its system E. coli MTCC 1687. Put plainly: MIC by micro broth dilution. The format is cell-based. Conditions: Escherichia coli, MTCC1687, read-out: Minimum inhibitory concentration (MIC). A digest of the protocol: as §1
In series [3] the test system is S. epidermidis ATCC 35984 biofilm. Put plainly: Biofilm disruption assay (MTT) with compounds and compound loaded beads. The series is classed as cell-based. Conditions: Staphylococcus epidermidis, ATCC35984, read-out: Concentration of compounds (mg/ml) for 50% biofilm disruption. As to the method:
S. epidermidis ATCC 35984 was grown in Brain Heart Infusion Agar (BHIA) at 37° C. for 24 h. The loop full of bacterial culture was suspended in sterile water and matched the turbidity against 0.5 McFarland Standard (approximately 1.5×10^8), 100 μl of culture suspension was added into each well of the 96 well plate and plates were incubated at 37° C. for 48 h for biofilm formation. The biofilm formed in each well was washed twice with sterile water to remove the planktonic cells. Then biofilm was treated with 100 yl of BHI broth suspended with various concentrations of DART molecules, followed by incubation of the plates at 37° C. for 24 h. Subsequently the biofilm in the wells were stained with MTT reagent and the plates were incubated at 37° C. for 2 h. The precipitate formed in the wells was dissolved in 100 μl of dimethyl sulfoxide (DMSO) and the absorbance was measured at 600 nm in multi well plate reader to determine the minimum biofilm inhibitory concentration (MBIC). The MBIC was calculated by subtracting the absorbance value of each drug treated sample from that of 48 h growth control.

The test system of series [4] is P. acnes CCARM 9010 induced paw inflammation. Put plainly: Anti-inflammatory action in vivo, rat paw edema model. Conditions: topical, 24 h post initiation of treatment (32 h post induction). Details: species or system Sprague Dawley rats. The source says:
Host inflammation is one of the crucial clinical feature of most of the indications associated with bacterial infections. The inventors used an exemplary compound of the invention (Compound 2) to test the anti-inflammatory effects in vivo using rat paw edema model. Inflammation was induced using one of the opportunistic pathogens Propionibacterium acnes prevalent in implant associated infections. Sprague Dawley rats were used for the study and infection was induced by P. acnes CCARM 9010. An inoculum of 1×10^9 CFU/ml of the heat killed bacteria was injected to the plantar side of the right hind paw (˜2×10^7 CFU/paw) except in sham control where saline was injected. Treatments were initiated 8 h post injection by applying the test formulation of Compound 2 (30 mg) twice daily to the plantar surface of the right hind paw and gently rubbing 50 times with the index finger. Comparators Acnedap (dapsone 5% gel) and adapalene gel (Adaferin®) were applied twice daily and once daily based on clinical prescription dosage. Paw sizes were measured in millimeters using Vernier calipers at the start of the infection, 8 h post infection, and 24 h post initiation of treatment (32 h post induction of inflammation). The change in paw size, due to inflammation, was evaluated as the difference between the paw size measured at each time point and the basal paw size measured immediately before edema induction.

A short description of series [5]: Drug release assay of compound impregnated Smart set HV. The series is classed as physicochemical. The note with it: Smart set HV loaded; PBS buffer (pH 6.8):acetonitrile (9:1), 32° C., 7 days. The protocol:
The drug release study with compound 2 and compound 10 were conducted in sample vial containing 1.5 ml of dissolution media i.e., PBS buffer (pH 6.8):acetonitrile (9:1). The sample was kept in incubator rotator at 32° C. at 40 rpm. The release medium was withdrawn at specified interval of time (2 hr, 4 hr, 6 hr, day 1, day 2, day 3, day 4, day 5, day 6, day 7 and replaced by fresh 1.5 ml dissolution medium each time. All the samples were kept at −20° C. till the analysis is done. The measurement of drug release was done by HPLC.

Consider `Cc1ncc([N+](=O)[O-])n1CCN1CCN(c2cc3c(cc2F)c(=O)c(C(=O)O)c2n3C(C)S2)CC1` (stereo not shown) [Compound 2, 6-Fluoro-1-methyl-7-(4-(2-(2-methyl-5-nitro-1H-imidazol-1-yl)ethyl)piperazin-1-yl)-4-oxo-1H,4H-[1,3]thiazeto[3,2-a]quinoline-3-carboxylic acid], for which the MIC enhancement in series [1] was 2-4 ×MIC. The MIC in the series on K. pneumonia ATCC 13883 was 4 µg/mL (≈ 7.96 µM); with S. aureus MTCC 6908, 0.53 µg/mL (≈ 1.05 µM); in the series with E. coli BAA 196 it was 8 µg/mL (≈ 15.9 µM); in series [2], 0.03 µg/mL (≈ 0.0597 µM); with P. aeruginosa ATCC 27853, 8 µg/mL (≈ 15.9 µM); in the series on E. faecium NCIM 5421, 0.25 µg/mL (≈ 0.497 µM). Besides, the MIC is 0.13 µg/mL (≈ 0.259 µM) in the series with S. aureus ATCC 43300, 8 µg/mL (≈ 15.9 µM) in the series with E. aerogenes M2-1 and 1 µg/mL (≈ 1.99 µM) with E. coli MTCC 1687. Also, the EC50 in series [3] was 0.5 to 1 mg/mL (≈ 995 to 1990 µM). In addition, the “Inhibition of inflammation (%) at 24 h post treatment” value in series [4] is 43% and 43.20%. The “drug release from bone cement in words” value in series [5] is “sustained release of active over a period of 7 days”.
